Measured values from the supplement of paper PMC4862054.

How the values were obtained:
Settings in all cases: incubation time: 72 h
DU-4475 [1] = test: normalised response (% of control), CellTiter-Glo; higher = more viable cells (100 = DMSO, 0 = benzethonium chloride kill control)
In short: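 In 384-well plates holding compound at 5 concentrations in 10-fold steps over a 10,000-fold range specific to each compound, breast cancer cell lines were seeded as 20 µl suspension and incubated 72 h. CellTox Green fluorescence was measured at 485/520 nm, after which CellTiter-Glo luminescence was measured following 10 min at room temperature. Plate signals were normalised to 0.1 % DMSO (100) and a positive kill control (0), and each value is the normalised signal at a single concentration.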

HCC1599 = test: drug sensitivity score (DSS), CellTiter-Glo (DSS (AUC-based score)); higher = stronger drug effect (viability inhibition or cytotoxicity); extreme values may be limits of the assay
In short: (§1)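 The area under the fitted dose-response curve was used to calculate the drug sensitivity score. Cells from breast cancer lines were incubated for 72 h in 384-well plates with compound at 5 concentrations spaced 10-fold over a 10,000-fold range specific to each compound. Plates were read for CellTox Green and then CellTiter-Glo, and normalised to 0.1 % DMSO and a positive kill control.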

CAL-85-1 = test: as above
In short: as §1

MCF-10A = test: as above
In short: as §1

BT-474 = test: as above
In short: as §1

HDQ-P1 [2] = test: as above
In short: as §1

BT-549 = test: as above
In short: as §1

CAL-120 = test: as above
In short: as §1

CAL-148 [3] = test: as above
In short: as §1

MDA-MB-231 = test: as above
In short: as §1

SK-BR-3 = test: as above
In short: as §1

MDA-MB-436 = test: as above
In short: as §1

MDA-MB-468 [4] = test: as above
In short: as §1

Hs578T = test: as above
In short: as §1

MFM-223 = test: as above
In short: as §1

HCC1937 = test: as above
In short: as §1

HCC1143 = test: as above
In short: as §1

MDA-MB-453 = test: as above
In short: as §1

DU-4475 [5] = test: as above
In short: as §1

CAL-51 = test: as above
In short: as §1

HDQ-P1 [6] = test: drug sensitivity score (DSS), CellTox Green (DSS (AUC-based score)); higher = stronger drug effect (viability inhibition or cytotoxicity); extreme values may be limits of the assay
In short: as §1

CAL-148 [7] = test: as above
In short: as §1

MDA-MB-468 [8] = test: as above
In short: as §1

CC(C)C[C@H](NC(=O)[C@H](CCc1ccccc1)NC(=O)CN1CCOCC1)C(=O)N[C@@H](Cc1ccccc1)C(=O)N[C@@H](CC(C)C)C(=O)[C@@]1(C)CO1 [Carfilzomib] (100 nM)
normalised response (DU-4475 [1]): 14.6%

O=NN(CCCl)C(=O)NC1CCCCC1 [Lomustine] (1000 nM)
normalised response (DU-4475 [1]): 99.2%

NC(=O)NO [Hydroxyurea]
drug sensitivity score (HCC1599): 0 | drug sensitivity score (CAL-85-1): 0 | drug sensitivity score (MCF-10A): 0 | drug sensitivity score (BT-474): 0 | drug sensitivity score (HDQ-P1 [2]): 0 | drug sensitivity score (BT-549): 1.87 | drug sensitivity score (CAL-120): 0 | drug sensitivity score (CAL-148 [3]): 0 | drug sensitivity score (MDA-MB-231): 0 | drug sensitivity score (SK-BR-3): 0 | drug sensitivity score (MDA-MB-436): 0 | drug sensitivity score (MDA-MB-468 [4]): 0 | drug sensitivity score (Hs578T): 0 | drug sensitivity score (MFM-223): 0 | drug sensitivity score (HCC1937): 0 | drug sensitivity score (HCC1143): 0 | drug sensitivity score (MDA-MB-453): 0 | drug sensitivity score (DU-4475 [5]): 0 | drug sensitivity score (CAL-51): 16.2 | drug sensitivity score (HDQ-P1 [6]): 0 | drug sensitivity score (CAL-148 [7]): 0 | drug sensitivity score (MDA-MB-468 [8]): 0

NC1(c2ccc(-c3nc4ccn5c(=O)[nH]nc5c4cc3-c3ccccc3)cc2)CCC1 [MK-2206] (100 nM)
normalised response (DU-4475 [1]): 97.5%

NC(=O)c1cccc2cn(-c3ccc([C@@H]4CCCNC4)cc3)nc12 [MK-4827] (1000 nM)
normalised response (DU-4475 [1]): 86%

C[C@@H](C(=O)O)c1ccc(-c2ccccc2)c(F)c1 [Tarenflurbil] (1000 nM)
normalised response (DU-4475 [1]): 94.6%

C[C@@H]1C[C@H]2[C@@H]3CCC4=CC(=O)C=C[C@]4(C)[C@@]3(F)[C@@H](O)C[C@]2(C)[C@@]1(O)C(=O)CO [Dexamethasone] (1000 nM)
normalised response (DU-4475 [1]): 96.2%

NC(=O)NO [Hydroxyurea] (10000 nM)
normalised response (DU-4475 [1]): 100%

Nc1nc(Cl)nc2c1ncn2[C@@H]1O[C@H](CO)[C@@H](O)[C@@H]1F [Clofarabine] (1000 nM)
normalised response (DU-4475 [1]): 70.9%

Cc1cc2c(F)c(Oc3ncnn4cc(OC[C@@H](C)O)c(C)c34)ccc2[nH]1 [Brivanib] (100 nM)
normalised response (DU-4475 [1]): 101%
